Here are results for eight compounds from patent US20200377496A1, “INDOLE AND BENZIMIDAZOLE DERIVATIVES AS DUAL 5-HT2A and 5-HT6 RECEPTOR ANTAGONISTS” (ADAMED PHARMA, S.A., priority 2018, published 2020).

Like-named read-outs stand apart in the source and are kept apart here.

The target of one assay is human GPCR 5-HT6 (Homo sapiens, UniProt P50406). As to the kind of experiment: Cellular aequorin-based functional assay, 5-HT6. It is filed as cell-based. The note with it: for 5-HT6 AGO EC50 [nM]: agonist mode, CHO-K1 aequorin cells; for Kb: antagonist mode, reference agonist serotonin 40 nM (EC80), read-out: 5-HT6 ANT Kb. Here is the method:
(§1) Preparation of Solutions of Test and Reference Compounds.
(§2) 1 mM stock solutions of the tested compounds were prepared in DMSO. Serial dilutions were prepared in 96-well microplate in assay buffers using automated pipetting system epMotion 5070 (Eppendorf). Two independent experiments in duplicates were performed and 6 to 10 concentrations were tested.
(§3) 5-HT2A and 5-HT6 Functional Activity Assays.
(§4) Cellular aequorin-based functional assays were performed with γ-irradiated recombinant CHO-K1 cells expressing mitochondrially-targeted Aequorin, human GPCR (5-HT2A or 5-HT6) and the promiscuous G protein α16 (PerkinElemer). Assays were performed according to the standard protocol provided by the manufacturer. After thawing, cells were transferred to assay buffer (DMEM/HAM's F12 with 0.1% protease-free BSA) and centrifuged. Cell pellet was resuspended in assay buffer and coelenterazine h was added at final concentrations of 5 μM. Cell suspension was incubated at 21° C., protected from light with constant agitation, for 4 hours and then diluted with assay buffer to a concentration of 250,000 cells/ml. After 1 hour incubation 50 yl cell suspension was dispensed using automatic injectors built in radiometric and luminescence plate counter MicroBeta2 LumiJET (PerkinElmer, USA) into white opaque 96-well microplate preloaded with tested compounds. Immediate light emission generated following calcium mobilization was recorded for 30-60 seconds. In antagonist mode, after 15-30 minutes incubation reference agonist was added to the above assay mix and light emission was recorded again. Final concentration of reference agonist was equal EC80: serotonin 40 nM for 5-HT6 receptor and α-methylserotonin 30 nM for 5-HT2A receptor. The assays were performed in the agonist mode (5-HT6 AGO and 5-HT2A AGO) as well as antagonist mode (5-HT6 ANT and 5-HT2A ANT).
(§5) IC50 and EC50 were determined by non-linear regression analysis using GraphPad Prism 6.0 software. The log IC50 was used to obtain the Kb by applying the Cheng-Prusoff approximation.

In another assay the target is human GPCR 5-HT2A (Homo sapiens, UniProt P28223). As to the kind of experiment: Cellular aequorin-based functional assay, 5-HT2A. The conditions noted are these: for 5-HT2A AGO EC50 [nM]: agonist mode, CHO-K1 aequorin cells. It is filed as cell-based. Here is the method:
as §1, §2, §3, §4, §5

The target of assay [1] is T1, 5-HT6 receptors (Homo sapiens, UniProt P50406). The assay can be described thus: 5-HT6 receptor binding assay ([3H]-LSD radioligand). The note with it: membranes from CHO-K1 cells with human 5-HT6 receptor, [3H]-LSD 1 nM. Here is the method:
as §1
(§6) 1 mM stock solutions of tested compounds were prepared in DMSO. Serial dilutions of compounds were prepared in 96-well microplate in assay buffers using automated pipetting system epMotion 5070 (Eppendorf). Each compound was tested in 10 concentrations from 1.0E-6 to 1.0E-11 M (final concentration).
5-HT6 Receptor Binding Assay.
Radioligand binding was performed using membranes from CHO-K1 cells stably transfected with the human 5-HT6 receptor (PerkinElmer). All assays were carried out in duplicates. 50 μl working solution of the tested compounds, 50 μl [3H]-LSD (final concentration 1 nM) and 150 μl diluted membranes (8 μg protein per well) prepared in assay buffer (50 mM Tris, pH 7.4, 10 mM MgCl2, 0.1 mM EDTA) were transferred to polypropylene 96 well microplate using 96-wells pipetting station Rainin Liquidator (MettlerToledo). Methiothepin (10 μM) was used to define nonspecific binding. Microplate was covered with a sealing tape, mixed and incubated for 60 minutes at 37° C. The reaction was terminated by rapid filtration through GF/A filter mate presoaked with 0.5% polyethyleneimine for 30 minutes. Ten rapid washes with 200 μl 50 mM Tris buffer (4° C., pH 7.4) were performed using automated harvester system Harvester-96 MACH III FM (Tomtec). The filter mates were dried at 37° C. in forced air fan incubator and then solid scintilator MeltiLex was melted on filter mates at 90° C. for 5 minutes. Radioactivity was counted in MicroBeta2 scintillation counter (PerkinElmer). Data were fitted to a one-site curve-fitting equation with Prism 6 (GraphPad Software) and Ki values were estimated from the Cheng-Prusoff equation.

The target in the next assay is human 5-HT2A receptor (Homo sapiens, UniProt P28223). As to the kind of experiment: 5-HT2A receptor binding assay ([3H]-ketanserin radioligand). Here is the method: as §1, §6
human 5-HT2A receptor, sequence (P28223 whole entry): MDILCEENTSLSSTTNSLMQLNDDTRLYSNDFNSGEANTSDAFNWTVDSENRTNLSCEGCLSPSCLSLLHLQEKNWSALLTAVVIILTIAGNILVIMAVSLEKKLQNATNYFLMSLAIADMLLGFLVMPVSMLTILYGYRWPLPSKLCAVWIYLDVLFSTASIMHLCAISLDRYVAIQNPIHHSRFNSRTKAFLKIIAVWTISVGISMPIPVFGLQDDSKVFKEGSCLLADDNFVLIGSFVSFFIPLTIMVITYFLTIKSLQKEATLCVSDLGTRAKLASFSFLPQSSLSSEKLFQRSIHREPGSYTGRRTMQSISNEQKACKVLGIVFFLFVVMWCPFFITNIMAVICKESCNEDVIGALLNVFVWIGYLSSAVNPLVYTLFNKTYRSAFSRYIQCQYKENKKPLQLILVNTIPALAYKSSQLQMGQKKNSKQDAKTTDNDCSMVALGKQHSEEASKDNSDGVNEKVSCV
5-HT2A Receptor Binding Assay.
Radioligand binding was performed using membranes from CHO K1 cells stably transfected with the human 5-HT2A receptor (PerkinElmer). All assays were carried out in duplicates. 50 μl working solution of the tested compounds, 50 μl [3H]-ketanserin (final concentration 1 nM) and 150 μl diluted membranes (7 μg protein per well) prepared in assay buffer (50 mM Tris, pH 7.4, 4 mM CaCl2, 0.1% ascorbic acid) were transferred to polypropylene 96-well microplate using 96-wells pipetting station Rainin Liquidator (MettlerToledo). Mianserin (10 μM) was used to define nonspecific binding. Microplate was covered with a sealing tape, mixed and incubated for 60 minutes at 27° C. The reaction was terminated by rapid filtration through GF/B filter mate presoaked with 0.5% polyethyleneimine for 30 minutes. Ten rapid washes with 200 μl 50 mM Tris buffer (4° C., pH 7.4) were performed using automated harvester system Harvester-96 MACH III FM (Tomtec). The filter mates were dried at 37° C. in forced air fan incubator and then solid scintilator MeltiLex was melted on filter mates at 90° C. for 5 minutes. Radioactivity was counted in MicroBeta2 scintillation counter (PerkinElmer). Data were fitted to a one-site curve-fitting equation with Prism 6 (GraphPad Software) and Ki values were estimated from the Cheng-Prusoff equation.

Assay [2] has as its target T1, 5-HT6 receptors. The conditions noted are these: cited from earlier work.
Setting [3] is: antagonist mode, reference agonist α-methylserotonin 30 nM (EC80), read-out: 5-HT2A ANT Kb.
Setting [4] is: membranes from CHO K1 cells with human 5-HT2A receptor, [3H]-ketanserin 1 nM, read-out: 5-HT2A Ki.

T1 sequence (P50406 whole entry): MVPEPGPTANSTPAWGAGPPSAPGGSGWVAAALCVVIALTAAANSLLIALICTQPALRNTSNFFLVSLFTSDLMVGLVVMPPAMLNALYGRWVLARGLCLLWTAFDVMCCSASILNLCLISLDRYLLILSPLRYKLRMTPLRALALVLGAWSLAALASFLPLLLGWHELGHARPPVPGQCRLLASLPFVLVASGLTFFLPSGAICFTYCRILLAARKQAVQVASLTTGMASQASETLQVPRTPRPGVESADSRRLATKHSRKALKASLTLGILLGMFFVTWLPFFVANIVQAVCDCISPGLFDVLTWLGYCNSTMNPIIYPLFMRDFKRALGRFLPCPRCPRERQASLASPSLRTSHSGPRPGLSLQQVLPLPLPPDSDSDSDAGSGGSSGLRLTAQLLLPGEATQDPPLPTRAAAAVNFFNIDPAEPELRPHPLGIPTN
human GPCR 5-HT6, sequence (P50406 whole entry): as above
human GPCR 5-HT2A, sequence (P28223 whole entry): as the sequence (P28223 whole entry) above

Broadly, the Ki is the dissociation constant of the complex between target and ligand, obtained from inhibition or displacement. Take `FC(F)(F)c1cc2c(N3CCNCC3)cccc2n1Cc1ccsc1` [Compound 31, 4-(piperazin-1-yl)-1-(thiophen-3-ylmethyl)-2-(trifluoromethyl)-1H-indole]: at human GPCR 5-HT6, the “5-HT6 AGO EC50 [nM]” value is “N.C” and the Kb worked out at 0.2 nM. Besides, on human GPCR 5-HT2A, the Kb turned out to be 16 nM and the “5-HT2A AGO EC50 [nM]” value is recorded as “N.C”. For the same compound, the Ki at 5-HT6 receptors [1] was found to be 0.11 nM. In addition, the Ki on human 5-HT2A receptor was found to be 1.5 nM.

For the compound `Fc1ccc(Cn2c(C(F)(F)F)cc3c(N4CCNCC4)cccc32)cc1F` [Compound 25, 1-(3,4-difluorobenzyl)-4-(piperazin-1-yl)-2-(trifluoromethyl)-1H-indole], the “5-HT6 AGO EC50 [nM]” value at human GPCR 5-HT6 is on record as “N.C”. In addition, the Kb was 0.65 nM on human GPCR 5-HT6 and 20 nM at human GPCR 5-HT2A (setting [3]). Also, the “5-HT2A AGO EC50 [nM]” value at human GPCR 5-HT2A was “N.C”. In addition, the Ki on 5-HT6 receptors [1] turned out to be 0.37 nM; on human 5-HT2A receptor (setting [4]), 0.71 nM.

On to `Fc1cccc(Cn2c(C(F)(F)F)nc3c(N4CCNCC4)cccc32)c1` [Compound 7, 1-(3-fluorobenzyl)-4-(piperazin-1-yl)-2-(trifluoromethyl)-1H-benzimidazole], for which the “5-HT6 AGO EC50 [nM]” value on human GPCR 5-HT6 was “N.C”. Also, the Kb is 1.9 nM on human GPCR 5-HT6 and 22 nM on human GPCR 5-HT2A (setting [3]). Further, the “5-HT2A AGO EC50 [nM]” value at human GPCR 5-HT2A is listed as “N.C”. Moreover, the Ki on 5-HT6 receptors [1] was found to be 1.6 nM; on human 5-HT2A receptor (setting [4]) it was 2.9 nM.

Consider `CN1CCN(c2cccc3c2cc(C(F)(F)F)n3Cc2ccc(Cl)c(Cl)c2)CC1` [Compound 13, 1-(3,4-dichlorobenzyl)-4-(4-methylpiperazin-1-yl)-2-(trifluoromethyl)-1H-indole], for which, at human GPCR 5-HT6, the “5-HT6 AGO EC50 [nM]” value is given as “N.C” and the Kb is 9.1 nM. Besides, at human GPCR 5-HT2A, the “5-HT2A AGO EC50 [nM]” value is given as “N.C”. On 5-HT6 receptors [1], this compound displayed a Ki of 0.98 nM. Also, on human 5-HT2A receptor (setting [4]), the Ki was 2.6 nM.

For `CN1CCN(c2cccc3c2cc(C(F)(F)F)n3Cc2cccs2)CC1` [Compound 33, 4-(4-methylpiperazin-1-yl)-1-(thiophen-2-ylmethyl)-2-(trifluoromethyl)-1H-indole], on human GPCR 5-HT6, the “5-HT6 AGO EC50 [nM]” value was “N.C”. Also, the Kb turned out to be 0.28 nM on human GPCR 5-HT6 and 9.7 nM at human GPCR 5-HT2A (setting [3]). Besides, the “5-HT2A AGO EC50 [nM]” value at human GPCR 5-HT2A was “N.C”. Also, the Ki at 5-HT6 receptors [1] stood at 0.069 nM; at human 5-HT2A receptor (setting [4]), 0.17 nM.

In the case of `FC(F)(F)c1cc2c(N3CCNCC3)cccc2n1Cc1ccccc1` [Compound 12, 1-benzyl-4-(piperazin-1-yl)-2-(trifluoromethyl)-1H-indole], on human GPCR 5-HT6, the “5-HT6 AGO EC50 [nM]” value is “N.C” and the Kb worked out at 0.49 nM. Also, at human GPCR 5-HT2A, the Kb was found to be 31 nM and the “5-HT2A AGO EC50 [nM]” value was “N.C”. At 5-HT6 receptors [1], this compound had a Ki of 0.29 nM. The compound further had a Ki at human 5-HT2A receptor of 2.1 nM.

For `CN1CCN(c2cccc3c2cc(C(F)(F)F)n3Cc2ccc(Cl)c(F)c2)CC1` [Compound 14, 1-(4-chloro-3-fluorobenzyl)-4-(4-methylpiperazin-1-yl)-2-(trifluoromethyl)-1H-indole], on human GPCR 5-HT6, the “5-HT6 AGO EC50 [nM]” value is recorded as “N.C”. In addition, the Kb was 5.5 nM on human GPCR 5-HT6 and 59 nM at human GPCR 5-HT2A (setting [3]). Also, the “5-HT2A AGO EC50 [nM]” value at human GPCR 5-HT2A is “N.C”. Besides, the values for the Ki at 5-HT6 receptors [1] and at human 5-HT2A receptor (setting [4]) were 0.65 nM and 0.39 nM, respectively.

On to `CC(C)COc1ccc(CNC(=O)N(Cc2ccc(F)cc2)C2CCN(C)CC2)cc1` [pimavanserin], for which, at 5-HT6 receptors [2], the “affinity for the 5-HT6 receptors” value is on record as “no affinity”.
